Read-outs that look alike come from different tables or passages of the source. Bridge positions count the residues as written; N and C are the ends. Square brackets hold non-standard residues; d marks the D form. Peptide text beside a SMILES is read from it. * marks the point of attachment. Phe(2-CONH2) = NC(=O)c1ccccc1C[C@H](N)C(=O)O; Orn(iPr) = CC(C)NCCC[C@H](N)C(=O)O; Oxazole2carbonyl = O=C(c1ncco1)*; 3Pal = N[C@@H](Cc1cccnc1)C(=O)O
Test: Phase I first-in-human study, pharmacokinetics after single ascending subcutaneous doses in healthy volunteers
Assay type: in vivo
Conditions: for AUC(0-inf) / AUC(0-t) / CL/F / Cmax / Tmax / half-life / level at 1 h / level at 2 h / level at 3 h / level at 0.08 h / level at 0.17 h / level at 0.25 h / level at 0.33 h / level at 0.5 h / level at 0.75 h / level at 4 h / level at 6 h / level at 8 h: human, plasma, mean; for level at 1 h: nominal time 1 h; for level at 1 h / level at 2 h / level at 3 h / level at 0.08 h / level at 0.17 h / level at 0.25 h / level at 0.33 h / level at 0.5 h / level at 0.75 h / level at 4 h / level at 6 h / level at 8 h: read-out: Plasma Concentration AXN-001; for level at 2 h: nominal time 2 h; for level at 3 h: nominal time 3 h; for level at 0.08 h: nominal time 0.08 h; for level at 0.17 h: nominal time 0.17 h; for level at 0.25 h: nominal time 0.25 h; for level at 0.33 h: nominal time 0.33 h; for level at 0.5 h: nominal time 0.50 h; for level at 0.75 h: nominal time 0.75 h; for level at 4 h: nominal time 4 h; for level at 6 h: nominal time 6 h; for level at 8 h: nominal time 8 h
Protocol: For Phase I clinical studies, the 32 mg/mL pharmaceutical composition was dosed subcutaneously. The Phase I clinical trial was a randomised, double-blind, placebo-controlled, first-in-human study of the safety, tolerability and pharmacokinetics of AXN-001 in healthy volunteers under Protocol No. AXN-001-01 .
The pharmacokinetic objective of the clinical trial was to provide pharmacokinetic analysis of AXN-001 following single ascending subcutaneous doses of AXN-001. The study design included the following Cohorts: • Cohort 1: Dose 1 mg (2 mg/mL formulation); • Cohort 2: Dose 2 mg (4 mg/mL formulation); • Cohort 3: Dose 4 mg (8 mg/mL formulation); • Cohort 4: Dose 8 mg (16 mg/mL formulation); • Cohort 5: Dose 16 mg (32 mg/mL formulation).
Participants were administered a single dose (0.5 mL) of AXN-001 or placebo via subcutaneous (SC) injection into the abdomen. Blood samples were collected at specified time points for pharmacokinetic analysis (5,10,15,20,30,45,60 minutes; 2,3,4,6,8,12,24 hours). Individual plasma concentrations of ANX-001 were determined and used for analyses.
Pharmacokinetic (PK) parameters of AXN-001 were determined using Phoenix WinNonlin version 8.3. All concentrations below the limit of quantification (BLQ) were set to zero for the purpose of the PK analysis. All AUC determinations were made using linear trapezoidal method. The following parameters were determined: Cmax Maximum observed concentration. as read directly from the observed data. Tmax Time to maximum concentration T10nM Time to 10 nM T30nM Time to 30 nM T100nM Time to 100 nM AUC0-t Area under the concentration-time curve from time zero to the time of the last measurable concentration, calculated using linear trapezoidal rule AUC0-inf Area under the concentration-time curve from time zero to infinity, calculated using linear trapezoidal rule %AUCextrap The portion of AUC determined by extrapolation t1/2 Apparent terminal elimination half-life CL/F or CL Total apparent body clearance Vz/F or Vz Apparent volume of distribution λz Terminal elimination rate constant

CC(C)NCCC[C@@H]1NC(=O)[C@@H](NC(=O)[C@H](Cc2ccccc2C(N)=O)NC(=O)[C@H](NC(=O)c2ncco2)C(C)C)CSSC[C@@H](C(=O)N[C@@H](Cc2cccnc2)C(N)=O)NC(=O)[C@H](Cc2ccccc2)NC(=O)[C@@H]2CCCN2C(=O)CNC(=O)[C@H](C(C)C)NC(=O)[C@H](CC(=O)O)NC1=O [AXN-001, Oxazole-2-carbonyl-D-Val-Phe(2-Cbm)-c(Cys-Orn (iPr)-Asp-Val-Gly-Pro-Phe-Cys)-3Pal-NH2] (Oxazole2carbonyl-[dV][Phe(2-CONH2)]C[Orn(iPr)]DVGPFC[3Pal]-NH2; disulfide 3-10)
subjects who achieved plasma concentrations of 30nM (1 mg cohort): 1 of 6 | subjects who achieved plasma concentrations of 30nM (2 mg cohort): 5 of 6 | subjects who achieved 100nM plasma concentrations (4 mg cohort): 2/5 | subjects who achieved plasma concentrations of 30nM (4, 8, and 16 mg cohort): All subjects | subjects who achieved 100nM plasma concentrations (8 and 16 mg cohorts): All subjects | time to achieve plasma concentrations of 10nM AXN-001 (all subjects at all doses (1-16 mg SC)): less than 15 minutes | AUC(0-inf) (single SC dose 1 mg): 101 ng·h/mL | AUC(0-t) (single SC dose 1 mg): 96.1 ng·h/mL | CL/F (single SC dose 1 mg): 167 mL/min | Cmax (single SC dose 1 mg): 39.5 ng/mL | Tmax (single SC dose 1 mg): 0.792 h | half-life (single SC dose 1 mg): 1.31 h | level at 1 h (single SC dose 1 mg): 35.1 ng/mL | level at 2 h (single SC dose 1 mg): 22.8 ng/mL | level at 3 h (single SC dose 1 mg): 13.7 ng/mL | AUC(0-inf) (single SC dose 2 mg): 167 ng·h/mL | AUC(0-t) (single SC dose 2 mg): 159 ng·h/mL | CL/F (single SC dose 2 mg): 210 mL/min | Cmax (single SC dose 2 mg): 65 ng/mL | Tmax (single SC dose 2 mg): 0.792 h | half-life (single SC dose 2 mg): 1.35 h | level at 0.08 h (single SC dose 2 mg): 11.3 ng/mL | level at 0.17 h (single SC dose 2 mg): 21.6 ng/mL | level at 0.25 h (single SC dose 2 mg): 31.5 ng/mL | level at 0.33 h (single SC dose 2 mg): 40.4 ng/mL | level at 0.5 h (single SC dose 2 mg): 55.7 ng/mL | level at 0.75 h (single SC dose 2 mg): 62.6 ng/mL | level at 1 h (single SC dose 2 mg): 60.2 ng/mL | level at 2 h (single SC dose 2 mg): 38.1 ng/mL | level at 3 h (single SC dose 2 mg): 21.3 ng/mL | level at 4 h (single SC dose 2 mg): 11.4 ng/mL | level at 6 h (single SC dose 2 mg): 4.79 ng/mL | level at 8 h (single SC dose 2 mg): 0.713 ng/mL | AUC(0-inf) (single SC dose 4 mg): 343 ng·h/mL | AUC(0-t) (single SC dose 4 mg): 337 ng·h/mL | CL/F (single SC dose 4 mg): 197 mL/min | Cmax (single SC dose 4 mg): 133 ng/mL | Tmax (single SC dose 4 mg): 0.7 h | half-life (single SC dose 4 mg): 1.36 h | level at 0.08 h (single SC dose 4 mg): 9.6 ng/mL | level at 0.17 h (single SC dose 4 mg): 35.3 ng/mL | level at 0.25 h (single SC dose 4 mg): 71.4 ng/mL | level at 0.33 h (single SC dose 4 mg): 87.8 ng/mL | level at 0.5 h (single SC dose 4 mg): 115 ng/mL | level at 0.75 h (single SC dose 4 mg): 123 ng/mL | level at 1 h (single SC dose 4 mg): 134 ng/mL | level at 2 h (single SC dose 4 mg): 82.5 ng/mL | level at 3 h (single SC dose 4 mg): 44.7 ng/mL | level at 4 h (single SC dose 4 mg): 23.5 ng/mL | level at 6 h (single SC dose 4 mg): 8.25 ng/mL | level at 8 h (single SC dose 4 mg): 3.09 ng/mL | AUC(0-inf) (single SC dose 8 mg): 594 ng·h/mL | AUC(0-t) (single SC dose 8 mg): 585 ng·h/mL | CL/F (single SC dose 8 mg): 225 mL/min | Cmax (single SC dose 8 mg): 244 ng/mL | Tmax (single SC dose 8 mg): 0.75 h | half-life (single SC dose 8 mg): 1.47 h | level at 0.08 h (single SC dose 8 mg): 32.1 ng/mL | level at 0.17 h (single SC dose 8 mg): 84 ng/mL | level at 0.25 h (single SC dose 8 mg): 118 ng/mL | level at 0.33 h (single SC dose 8 mg): 144 ng/mL | level at 0.5 h (single SC dose 8 mg): 199 ng/mL | level at 0.75 h (single SC dose 8 mg): 240 ng/mL | level at 1 h (single SC dose 8 mg): 226 ng/mL | level at 2 h (single SC dose 8 mg): 136 ng/mL
